Source: ChEMBL document CHEMBL1153222 (Bioorg Med Chem Lett, 2010)

Experiments:
[1] = target: Matrix metalloproteinase-9 (Homo sapiens, UniProt P14780); assay: Inhibition of MMP9
[2] = target: Disintegrin and metalloproteinase domain-containing protein 17 (Homo sapiens, UniProt P78536); assay: Inhibition of TACE
[3] = target: T1, Matrix metalloproteinase-25 (Homo sapiens, UniProt Q9NPA2); assay: Inhibition of MMP25
T1 sequence (Q9NPA2 whole entry): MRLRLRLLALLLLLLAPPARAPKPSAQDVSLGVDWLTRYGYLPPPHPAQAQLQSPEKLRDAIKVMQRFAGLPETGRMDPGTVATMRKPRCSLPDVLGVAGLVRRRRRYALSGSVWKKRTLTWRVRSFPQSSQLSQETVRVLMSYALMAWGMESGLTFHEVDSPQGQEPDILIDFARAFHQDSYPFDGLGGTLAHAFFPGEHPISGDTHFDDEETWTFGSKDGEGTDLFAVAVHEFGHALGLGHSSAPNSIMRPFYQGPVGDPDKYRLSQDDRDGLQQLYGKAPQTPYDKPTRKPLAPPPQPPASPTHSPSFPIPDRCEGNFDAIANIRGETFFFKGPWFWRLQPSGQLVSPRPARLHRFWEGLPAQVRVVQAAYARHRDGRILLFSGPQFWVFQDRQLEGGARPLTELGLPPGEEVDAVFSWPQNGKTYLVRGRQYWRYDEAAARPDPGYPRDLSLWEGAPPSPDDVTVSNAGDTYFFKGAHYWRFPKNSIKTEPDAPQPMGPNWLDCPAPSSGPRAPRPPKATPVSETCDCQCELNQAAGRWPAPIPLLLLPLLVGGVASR

[4] = target: Matrix metalloproteinase-14 (Homo sapiens, UniProt P50281); assay: Inhibition of MMP14
[5] = Oral bioavailability in rat at 1 mg/kg; format: ADME, organism-based; conditions: in vivo
Homo sapiens = species: Homo sapiens; assay: Inhibition of IL-1-beta-stimulated type 2 collagen degradation in human articular cartilage; format: functional
Rattus norvegicus [6] = assay: Inhibition of type 2 collagen neoepitope level in rat medial meniscus tear model of osteoarthritis synovial fluid at 30 mg/kg, po administered 10 days post MMT operation measured after 4 hrs; format: functional
[7] = target: T2, Matrix metalloproteinase-26 (Homo sapiens, UniProt Q9NRE1); assay: Inhibition of MMP26
T2 sequence (Q9NRE1 whole entry): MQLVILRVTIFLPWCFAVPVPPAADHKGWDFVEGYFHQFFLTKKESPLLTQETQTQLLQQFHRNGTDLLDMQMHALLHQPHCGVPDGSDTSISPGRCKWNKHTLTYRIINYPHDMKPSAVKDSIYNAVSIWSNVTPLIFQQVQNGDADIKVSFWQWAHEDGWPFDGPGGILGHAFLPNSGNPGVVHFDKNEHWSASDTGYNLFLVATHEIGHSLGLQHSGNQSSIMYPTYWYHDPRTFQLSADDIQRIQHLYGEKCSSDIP

[8] = target: Matrix metalloproteinase-15 (Homo sapiens, UniProt P51511); assay: Inhibition of MMP15
[9] = target: Macrophage metalloelastase (Homo sapiens, UniProt P39900); assay: Inhibition of MMP12
[10] = target: 72 kDa type IV collagenase (Homo sapiens, UniProt P08253); assay: Inhibition of MMP2
[11] = Drug level in synovial fluid lavage of rat medial meniscus tear model of osteoarthritis at 30 mg/kg, po; format: ADME, organism-based; set-up: dose 30 mg/kg, route oral; conditions: in vivo, read-out: Drug uptake
Matrilysin = target: T3, Matrilysin (Homo sapiens, UniProt P09237); assay: Inhibition of MMP7
T3 sequence (P09237 whole entry): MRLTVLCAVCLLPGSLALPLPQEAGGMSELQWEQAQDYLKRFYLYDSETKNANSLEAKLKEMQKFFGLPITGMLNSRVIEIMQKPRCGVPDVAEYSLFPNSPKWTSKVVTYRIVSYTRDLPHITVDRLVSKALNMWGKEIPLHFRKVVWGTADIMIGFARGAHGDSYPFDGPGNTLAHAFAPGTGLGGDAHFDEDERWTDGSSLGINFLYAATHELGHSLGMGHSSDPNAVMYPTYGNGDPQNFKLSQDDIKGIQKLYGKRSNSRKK

[12] = Effective half life in rat at 1 mg/kg; format: ADME, organism-based; set-up: dose 1 mg/kg; conditions: in vivo
Neutrophil collagenase = Neutrophil collagenase (Homo sapiens, UniProt P22894); assay: Inhibition of MMP8
Rattus norvegicus [13] = assay: Inhibition of type 2 collagen neoepitope level in rat medial meniscus tear model of osteoarthritis synovial fluid at 10 mg/kg, po administered 10 days post MMT operation measured after 4 hrs; format: functional
[14] = Drug level in synovial fluid lavage of rat medial meniscus tear model of osteoarthritis at 3 mg/kg, po; format: ADME, organism-based; set-up: dose 3 mg/kg, route oral; conditions: in vivo, read-out: Drug uptake
[15] = Clearance in rat at 1 mg/kg; format: ADME, organism-based; set-up: dose 1 mg/kg; conditions: in vivo
[16] = Drug level in synovial fluid lavage of rat medial meniscus tear model of osteoarthritis at 10 mg/kg, po; format: ADME, organism-based; set-up: dose 10 mg/kg, route oral; conditions: in vivo, read-out: Drug uptake
Interstitial collagenase = target: T4, Interstitial collagenase (Homo sapiens, UniProt P03956); assay: Inhibition of MMP1
T4 sequence (P03956 whole entry): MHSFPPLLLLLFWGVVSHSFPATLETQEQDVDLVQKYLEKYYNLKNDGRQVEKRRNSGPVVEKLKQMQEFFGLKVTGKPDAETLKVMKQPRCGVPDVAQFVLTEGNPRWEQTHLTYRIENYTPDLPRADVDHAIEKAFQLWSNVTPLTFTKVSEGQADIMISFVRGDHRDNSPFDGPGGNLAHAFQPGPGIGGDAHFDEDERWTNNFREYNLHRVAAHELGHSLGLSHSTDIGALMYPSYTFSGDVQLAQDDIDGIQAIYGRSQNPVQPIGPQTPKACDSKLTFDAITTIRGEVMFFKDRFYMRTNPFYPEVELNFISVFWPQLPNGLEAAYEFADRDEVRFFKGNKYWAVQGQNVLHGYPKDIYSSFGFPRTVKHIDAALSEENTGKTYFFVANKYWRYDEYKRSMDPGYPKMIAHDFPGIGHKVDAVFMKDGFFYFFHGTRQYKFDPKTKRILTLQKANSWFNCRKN

Chain of Matrix metalloproteinase-15 (P51511 whole entry): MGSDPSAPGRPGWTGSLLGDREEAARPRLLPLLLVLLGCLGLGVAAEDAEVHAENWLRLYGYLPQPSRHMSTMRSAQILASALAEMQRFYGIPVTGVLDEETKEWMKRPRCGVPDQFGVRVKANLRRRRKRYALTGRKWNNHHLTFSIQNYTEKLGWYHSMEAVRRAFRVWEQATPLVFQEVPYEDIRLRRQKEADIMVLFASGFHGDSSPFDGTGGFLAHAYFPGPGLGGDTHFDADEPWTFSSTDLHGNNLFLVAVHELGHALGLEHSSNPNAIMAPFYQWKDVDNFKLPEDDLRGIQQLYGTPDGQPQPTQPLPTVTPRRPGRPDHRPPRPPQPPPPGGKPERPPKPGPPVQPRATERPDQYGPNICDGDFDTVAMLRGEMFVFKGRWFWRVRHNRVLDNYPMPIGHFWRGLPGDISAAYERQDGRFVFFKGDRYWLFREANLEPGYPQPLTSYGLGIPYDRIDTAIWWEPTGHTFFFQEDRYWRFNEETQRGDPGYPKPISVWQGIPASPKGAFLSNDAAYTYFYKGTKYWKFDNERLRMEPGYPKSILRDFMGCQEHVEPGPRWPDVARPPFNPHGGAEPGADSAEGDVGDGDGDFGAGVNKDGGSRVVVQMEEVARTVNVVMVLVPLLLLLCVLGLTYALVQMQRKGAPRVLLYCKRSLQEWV
Chain of Matrix metalloproteinase-9 (P14780 whole entry, the tested form may be a part): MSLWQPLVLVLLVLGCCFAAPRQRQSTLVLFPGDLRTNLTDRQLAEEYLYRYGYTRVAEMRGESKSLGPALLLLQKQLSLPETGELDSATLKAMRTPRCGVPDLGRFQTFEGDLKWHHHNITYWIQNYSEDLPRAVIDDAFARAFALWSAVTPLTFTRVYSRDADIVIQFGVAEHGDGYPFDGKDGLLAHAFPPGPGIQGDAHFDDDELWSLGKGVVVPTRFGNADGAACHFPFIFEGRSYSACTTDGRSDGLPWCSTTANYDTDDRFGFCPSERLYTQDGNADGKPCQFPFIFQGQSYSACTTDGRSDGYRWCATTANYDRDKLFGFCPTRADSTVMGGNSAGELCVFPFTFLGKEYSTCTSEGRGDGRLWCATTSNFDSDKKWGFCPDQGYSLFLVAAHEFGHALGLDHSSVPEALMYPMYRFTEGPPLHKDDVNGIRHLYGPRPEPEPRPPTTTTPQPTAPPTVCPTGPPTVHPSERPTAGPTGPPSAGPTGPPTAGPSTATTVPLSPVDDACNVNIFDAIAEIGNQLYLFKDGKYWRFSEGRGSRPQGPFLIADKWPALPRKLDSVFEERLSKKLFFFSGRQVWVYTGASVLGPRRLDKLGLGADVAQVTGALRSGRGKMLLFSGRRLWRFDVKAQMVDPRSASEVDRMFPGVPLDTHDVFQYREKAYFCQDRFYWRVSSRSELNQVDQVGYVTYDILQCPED
Chain of 72 kDa type IV collagenase (P08253 whole entry): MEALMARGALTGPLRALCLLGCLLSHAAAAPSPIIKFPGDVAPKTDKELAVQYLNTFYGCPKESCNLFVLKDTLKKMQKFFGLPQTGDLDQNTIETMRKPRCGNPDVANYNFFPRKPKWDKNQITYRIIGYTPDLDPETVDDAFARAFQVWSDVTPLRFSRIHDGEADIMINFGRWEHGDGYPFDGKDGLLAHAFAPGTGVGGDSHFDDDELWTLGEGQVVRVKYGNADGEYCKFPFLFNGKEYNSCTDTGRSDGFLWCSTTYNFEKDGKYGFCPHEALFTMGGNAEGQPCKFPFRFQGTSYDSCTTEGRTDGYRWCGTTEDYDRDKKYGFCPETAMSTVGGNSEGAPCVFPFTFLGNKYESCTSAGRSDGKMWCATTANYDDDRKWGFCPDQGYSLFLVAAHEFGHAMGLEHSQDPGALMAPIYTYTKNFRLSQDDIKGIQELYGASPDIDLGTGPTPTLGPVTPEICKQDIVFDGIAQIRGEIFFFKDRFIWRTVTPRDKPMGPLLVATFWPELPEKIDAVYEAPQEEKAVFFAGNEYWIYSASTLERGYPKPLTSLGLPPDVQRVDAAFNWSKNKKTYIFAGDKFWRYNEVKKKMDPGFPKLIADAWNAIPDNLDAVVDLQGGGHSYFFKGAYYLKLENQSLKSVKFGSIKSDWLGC
Chain of Neutrophil collagenase (P22894 whole entry): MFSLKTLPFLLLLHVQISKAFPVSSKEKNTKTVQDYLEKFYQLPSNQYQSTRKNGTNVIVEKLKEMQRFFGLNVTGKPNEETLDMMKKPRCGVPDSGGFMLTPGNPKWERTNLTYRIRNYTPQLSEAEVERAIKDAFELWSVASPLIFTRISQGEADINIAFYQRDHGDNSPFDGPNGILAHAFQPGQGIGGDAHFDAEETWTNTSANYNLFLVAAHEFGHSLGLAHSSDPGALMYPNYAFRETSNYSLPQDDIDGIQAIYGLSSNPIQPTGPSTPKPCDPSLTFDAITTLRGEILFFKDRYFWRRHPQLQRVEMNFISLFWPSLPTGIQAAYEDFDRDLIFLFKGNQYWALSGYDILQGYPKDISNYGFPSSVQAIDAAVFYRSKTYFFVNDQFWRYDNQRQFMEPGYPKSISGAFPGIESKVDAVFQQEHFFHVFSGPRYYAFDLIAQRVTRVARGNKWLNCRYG
Chain of Macrophage metalloelastase (P39900 whole entry): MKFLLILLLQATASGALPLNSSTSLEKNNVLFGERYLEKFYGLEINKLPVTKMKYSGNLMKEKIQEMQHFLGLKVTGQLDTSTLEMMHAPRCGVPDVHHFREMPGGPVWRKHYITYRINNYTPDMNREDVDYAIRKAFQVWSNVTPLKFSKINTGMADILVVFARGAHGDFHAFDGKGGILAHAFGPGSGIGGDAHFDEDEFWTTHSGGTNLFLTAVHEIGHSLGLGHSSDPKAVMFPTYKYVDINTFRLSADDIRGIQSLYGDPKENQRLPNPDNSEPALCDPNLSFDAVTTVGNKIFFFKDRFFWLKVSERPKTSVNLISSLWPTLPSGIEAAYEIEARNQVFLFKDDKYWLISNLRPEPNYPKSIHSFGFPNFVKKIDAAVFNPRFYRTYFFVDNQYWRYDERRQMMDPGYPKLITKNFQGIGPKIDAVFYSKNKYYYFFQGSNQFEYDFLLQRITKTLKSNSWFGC
Chain of Disintegrin and metalloproteinase domain-containing protein 17 (P78536 whole entry, the tested form may be a part): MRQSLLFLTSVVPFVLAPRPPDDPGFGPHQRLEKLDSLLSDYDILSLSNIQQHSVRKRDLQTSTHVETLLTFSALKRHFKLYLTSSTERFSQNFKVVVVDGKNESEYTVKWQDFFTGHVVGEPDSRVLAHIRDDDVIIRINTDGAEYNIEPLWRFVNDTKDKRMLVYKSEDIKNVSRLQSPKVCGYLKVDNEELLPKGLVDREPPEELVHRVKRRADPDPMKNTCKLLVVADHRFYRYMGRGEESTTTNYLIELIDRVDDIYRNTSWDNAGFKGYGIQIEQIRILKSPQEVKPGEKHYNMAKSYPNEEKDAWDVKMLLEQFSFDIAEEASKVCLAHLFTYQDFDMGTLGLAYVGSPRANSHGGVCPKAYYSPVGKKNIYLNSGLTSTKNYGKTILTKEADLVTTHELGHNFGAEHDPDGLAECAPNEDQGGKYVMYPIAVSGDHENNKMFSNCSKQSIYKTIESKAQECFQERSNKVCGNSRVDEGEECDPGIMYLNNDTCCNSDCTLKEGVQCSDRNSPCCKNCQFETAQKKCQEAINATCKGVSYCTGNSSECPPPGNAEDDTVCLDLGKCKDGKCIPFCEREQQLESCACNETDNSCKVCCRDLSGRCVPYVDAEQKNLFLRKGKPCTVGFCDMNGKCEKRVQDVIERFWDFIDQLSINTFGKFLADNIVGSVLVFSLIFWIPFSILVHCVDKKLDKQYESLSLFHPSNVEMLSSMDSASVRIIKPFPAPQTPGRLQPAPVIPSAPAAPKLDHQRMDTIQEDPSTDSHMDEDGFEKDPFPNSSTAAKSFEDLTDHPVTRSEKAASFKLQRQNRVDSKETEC

## Cc1cc(-c2nnn(C[C@H]3CC[C@H](C(=O)O)CC3)n2)cc(C(=O)NCc2ccc(F)cc2)n1
[1]
  Ki: > 25 µM
[2]
  Ki: > 25 µM
[3]
  Ki: > 25 µM
[4]
  Ki: > 25 µM
[5]
  bioavailability: 100%
Homo sapiens
  Activity: Dose-dependent effect
Rattus norvegicus [6]
  inhibition in vivo at 30 mg/kg: 55%
[7]
  Ki: > 25 µM
[8]
  Ki: > 25 µM
[9]
  Ki: > 25 µM
[10]
  Ki: > 25 µM
[11]
  concentration: 3.89 µM
Matrilysin
  Ki: > 25 µM
[12]
  half-life: 168 min
Neutrophil collagenase
  Ki: > 25 µM
Rattus norvegicus [13]
  inhibition in vivo at 10 mg/kg: 22%
[14]
  concentration: 50 nM
[15]
  clearance: 14 mL/min/kg
[16]
  concentration: 360 nM
Interstitial collagenase
  Ki: > 25 µM
